Results reported in patent publication US6894185B2, “Substituted chiral allosteric hemoglobin modifiers” (Allós Therapeutics, Inc., priority 1999, dated 2005).

What follows are molecules tested against T1, hemoglobin (Homo sapiens, UniProt P68871+P69905) (assay: In vitro whole blood studies (multi-point tonometry and blood gas analysis)). Settings: Table II.
T1 construct: The whole blood samples were collected in heparinized tubes from healthy volunteers; from tissue; host or cells: human whole blood (heparinized) from healthy volunteers
Assay type: cell-based
Experimental: Structure-allosteric activity relationships were determined from the synthetic chiral effectors comparing the shift in the oxygen binding curve of Hb solutions using a Hemox-Analyzer. In vitro biological activity testing in the presence of plasma proteins was also performed on selected enantiomers and racemates (multi-point tonometry and blood gas analysis) to screen for candidates with potential clinical use. SAR studies compared the degree in shift in P50 values, i.e., the partial pressure of molecular oxygen necessary to half-saturate hemoglobin. An effector that decreases Hb oxygen affinity increases the P50 value relative to the control. Thus, the activity or potency of each analog could be expressed by the ratio P50 (effector)/P50(control). Tables and II and III summarize the p50 values obtained using human whole blood, while Tables IV and V summarize the P50 and the Hill coefficient values (n50) at half-saturation obtained using Hemox-analyzer. The slope of the log of the oxygen binding curves is known as the Hill coefficient. The Hill coefficient measures the degree of cooperativity in binding for an allosteric protein, the normal range for human blood is 2.7-3.2. Table VI presents the results from the whole blood studies given as a ΔP50 and Hill coefficient (n50) values for the enantiomers and racemates.
The whole blood samples were collected in heparinized tubes from healthy volunteers and stored over ice. The sodium salts of the compounds were prepared as described earlier. A 200 mM stock solution of the effector was prepared in DMSO. A 5.0 mM test solution was prepared from 50 μL of the 200 mM test solution and 1950 μL of whole blood. The blood samples were incubated in IL 237 tonometers (Instrumentation Laboratories, Inc. Lexington, Mass.) for approximately 10-12 min at 37° C. and equilibrated at three separate concentrations of O2 (20%, 40%, and 60%). After equilibration at each concentration of O2, a sample was removed via syringe and aspirated into a IL 1420 Automated Blood Gas Analyzer (Instrumentation Laboratories, Inc. Lexington, Mass.) and a IL 482 and IL 682 Co-oximeter (Instrumentation Laboratories, Inc. Lexington, Mass.) to determine the pH, pCO2, pO2 and the hemoglobin oxygen saturation values (sO2), respectively. The measured values for pO2 and sO2 at each oxygen saturation level were then subjected to a non-linear regression analysis using the program Scientist (Micromath, Salt Lake City, Utah) to calculate the P50 and Hill coefficient values.

T1 sequence (P69905 2-142 limits assumed): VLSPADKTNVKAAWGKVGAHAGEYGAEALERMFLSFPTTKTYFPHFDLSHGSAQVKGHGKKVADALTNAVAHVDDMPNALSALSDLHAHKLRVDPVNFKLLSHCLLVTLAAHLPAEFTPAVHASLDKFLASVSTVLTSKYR
T1 sequence (P68871 2-147 limits assumed): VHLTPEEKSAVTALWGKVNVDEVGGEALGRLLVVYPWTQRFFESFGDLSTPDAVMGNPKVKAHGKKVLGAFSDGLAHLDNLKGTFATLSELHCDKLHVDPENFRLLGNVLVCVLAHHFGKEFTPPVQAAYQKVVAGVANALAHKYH

Molecule | Whole Blood Δp50 mm Hg [mm Hg]
Cc1cc(C)cc(NC(=O)Cc2ccc(OC(C(=O)O)c3ccccc3)cc2)c1 (stereo not shown) [Compound 14] | 15
CCC(Oc1ccc(CC(=O)Nc2cc(C)cc(C)c2)cc1)(C(=O)O)c1ccccc1 (stereo not shown) [Compound 16] | 12
Cc1cc(C)cc(NC(=O)C2(C)CCc3cc(OC(C)(C)C(=O)O)c(C)c(C)c3O2)c1 (stereo not shown) [Compound 17] | 1
Cc1cc(C)cc(NC(=O)C(O)c2ccc(OC(C)(C)C(=O)O)cc2)c1 (stereo not shown) [Compound 12, 2-{4-[(3,5-Dimethyl-phenylcarbamoyl)-hydroxy-methyl]-phenoxy}-2-methyl-propionic acid] | 21
Cc1cc(C)cc(NC(=O)Cc2ccc(OC(C)(C(=O)O)c3ccccc3)cc2)c1 (stereo not shown) [Compound 15] | 12
CCOC(C(=O)Nc1cc(C)cc(C)c1)c1ccc(OC(C)(C)C(=O)O)cc1 (stereo not shown) [Compound 13, 2-{4-[(3,5-Dimethyl-phenylcarbamoyl)-ethoxy-methyl]-phenoxy}-2-methyl-propionic acid] | 4

Same assay, conditions: Table III

Molecule | Whole Blood Δp50 mm Hg [mm Hg]
Cc1cc(C)cc(NC(=O)Cc2ccc(OC(C)(C)C(=O)NC(Cc3ccccc3)C(=O)O)cc2)c1 (stereo not shown) [Compound 27] | 10
Cc1cc(C)cc(NC(=O)Cc2ccc(OC3(C(=O)N[C@@H](Cc4c[nH]c5ccccc45)C(=O)O)CCCC3)cc2)c1 [Compound 47, 1-[4-(((3,5-dimethylanilino)carbonyl)methyl)phenoxy]cyclopentanecarbonyl-L-tryptophan] | 20
CSCC[C@H](NC(=O)C1(Oc2ccc(CC(=O)Nc3cc(C)cc(C)c3)cc2)CCCC1)C(=O)O [Compound 52, 1-[4-(((3,5-dimethylanilino)carbonyl)methyl)phenoxy]cyclopentanecarbonyl-L-methionine] | 21
CSCCC(NC(=O)C(C)(C)Oc1ccc(CC(=O)Nc2cc(C)cc(C)c2)cc1)C(=O)O (stereo not shown) [Compound 33, 2-(2-(4-((3,5-Dimethyl-phenylcarbamoyl)-methyl)-phenoxy)-2-methyl-propionylamino)-4-methylsulfanyl-butyric acid] | 16
Cc1cc(C)cc(NC(=O)Cc2ccc(OC3(C(=O)N[C@@H](CCC(=O)O)C(=O)O)CCCC3)cc2)c1 [Compound 48, 1-[4-(((3,5-dimethylanilino)carbonyl)methyl)phenoxy]cyclopentanecarbonyl-L-glutamate] | 22
Cc1cc(C)cc(NC(=O)Cc2ccc(OC3(C(=O)N[C@@H](CSCc4ccccc4)C(=O)O)CCCC3)cc2)c1 [Compound 57, 1-[4-(((3,5-dimethylanilino)carbonyl)methyl)phenoxy]cyclopentanecarbonyl S-benzyl-L-cysteine] | 7
Cc1cc(C)cc(NC(=O)Cc2ccc(OC3(C(=O)N[C@H](CCCCN)C(=O)O)CCCC3)cc2)c1 [Compound 61, 1-[4-(((3,5-dimethylanilino)carbonyl)methyl)phenoxy]cyclopentanecarbonyl-D-lysine] | −0.2
Cc1cc(C)cc(NC(=O)Cc2ccc(OC(C)(C)C(=O)NC(C(=O)O)C(C)C)cc2)c1 (stereo not shown) [Compound 26] | 20
COC(=O)C(CCC(=O)O)NC(=O)C(C)(C)Oc1ccc(CC(=O)Nc2cc(C)cc(C)c2)cc1 (stereo not shown) [Compound 30] | 26
1-[4-(((3,5-dimethylanilino)carbonyl)methyl) phenoxy]cyclopentane carbonyl glycine [Compound 37] | 25
Cc1cc(C)cc(NC(=O)Cc2ccc(OC(C)(C)C(=O)N3CCCC3C(=O)O)cc2)c1 (stereo not shown) [Compound 35] | 12
COC(=O)C(CC(=O)O)NC(=O)C(C)(C)Oc1ccc(CC(=O)Nc2cc(C)cc(C)c2)cc1 (stereo not shown) [Compound 31] | 21
Cc1cc(C)cc(NC(=O)Cc2ccc(OC3(C(=O)N[C@@H](CC(=O)O)C(=O)O)CCCC3)cc2)c1 [Compound 55, 1-[4-(((3,5-dimethylanilino)carbonyl)methyl)phenoxy]cyclopentanecarbonyl-L-aspartate] | 27
Cc1cc(C)cc(NC(=O)Cc2ccc(OC(C)(C)C(=O)NC(Cc3ccccc3)C(=O)O)cc2)c1 (stereo not shown) [Compound 28] | 20
Cc1cc(C)cc(NC(=O)Cc2ccc(OC(C)(C)C(=O)NC(C)C(=O)O)cc2)c1 (stereo not shown) [Compound 22] | 17
Cc1cc(C)cc(NC(=O)Cc2ccc(OC(C)(C)C(=O)NC(CSCc3ccccc3)C(=O)O)cc2)c1 (stereo not shown) [Compound 36, 3-Benzylsulfanyl-2-(2-(4-((3,5-Dimethyl)-phenylcarbamoyl)-methyl-phenoxy)-2-methyl-propionylamino)-propionic acid] | 18
Cc1cc(C)cc(NC(=O)Cc2ccc(OC(C)(C)C(=O)NC(C(=O)O)C(C)C)cc2)c1 (stereo not shown) [Compound 24] | 22
Cc1cc(C)cc(NC(=O)Cc2ccc(OC3(C(=O)N[C@@H](C(=O)O)C(C)C)CCCC3)cc2)c1 [Compound 42, 1-[4-(((3,5-dimethylanilino)carbonyl)methyl)phenoxy]cyclopentanecarbonyl-D-valine] | 27
Cc1cc(C)cc(NC(=O)Cc2ccc(OC3(C(=O)N[C@@H](Cc4ccccc4)C(=O)O)CCCC3)cc2)c1 [Compound 45, 1-[4-(((3,5-dimethylanilino)carbonyl)methyl)phenoxy]cyclopentanecarbonyl-L-phenylalanine] | 20
CSCCC(NC(=O)C(C)(C)Oc1ccc(CC(=O)Nc2cc(C)cc(C)c2)cc1)C(=O)O (stereo not shown) [Compound 34, 2-(2-(4-((3,5-Dimethyl-phenylcarbamoyl)-methyl)-phenoxy)-2-methyl-propionylamino)-4-methylsulfanyl-butyric acid] | 11
Cc1cc(C)cc(NC(=O)Cc2ccc(OC(C)(C)C(=O)NC(C(=O)O)C(C)C)cc2)c1 (stereo not shown) [Compound 25] | 20
(2-(2-{4-[(3,5-Dimethyl-phenylcarbamoyl)-methyl]-phenoxy}-2-methyl-propionylamino)-4-pentanoic acid [Compound 29] | 10
Cc1cc(C)cc(NC(=O)Cc2ccc(OC3(C(=O)N[C@H](CCCCNC(=O)OCc4ccccc4)C(=O)O)CCCC3)cc2)c1 [Compound 60, N^a-1-[4-(((3,5dimethylanilino)carbonyl)methyl)phenoxy]cyclopentane-carbonyl-N^e-benzyloxycarbonyl-D-lysine] | 14
Cc1cc(C)cc(NC(=O)Cc2ccc(OC3(C(=O)N[C@@H](CCCCNC(=O)OCc4ccccc4)C(=O)O)CCCC3)cc2)c1 [Compound 59, N^a-1-[4-(((3,5dimethylanilino)carbonyl)methyl)phenoxy]cyclopentane-carbonyl-N^e-benzyloxycarbonyl-L-lysine] | 0.4
Cc1cc(C)cc(NC(=O)Cc2ccc(OC(C)(C)C(=O)NC(C)C(=O)O)cc2)c1 (stereo not shown) [Compound 23] | 22
Cc1cc(C)cc(NC(=O)Cc2ccc(OC3(C(=O)N[C@H](C)C(=O)O)CCCC3)cc2)c1 [Compound 38, 1-[4-(((3,5-dimethylanilino)carbonyl)methyl)phenoxy]cyclopentanecarbonyl-D-alanine] | 30
Cc1cc(C)cc(NC(=O)Cc2ccc(OC(C)(C)C(=O)NCC(=O)O)cc2)c1 [KDD4-24] | 17
Cc1cc(C)cc(NC(=O)Cc2ccc(OC(C)(C)C(=O)NC(Cc3c[nH]c4ccccc34)C(=O)O)cc2)c1 (stereo not shown) [Compound 32] | 11
